Laboratory results from patent US11793782B2, “Therapeutic agents for neurodegenerative diseases” (priority 2017, dated 2023).

What was measured:
[1] = test system: Hexb−/− mouse (Sandhoff disease model); assay: Bar crossing test, Sandhoff mouse; assay type: in vivo; conditions: 0.1 g/kg body weight from 3 weeks of age
Text: The bar crossing test is a method for assessing motor function in mice in which the mouse is placed hanging from the centre of a horizontal bar by its front limbs. A wild-type mouse with normal motor function will be able to engage its hind limbs and thereby move to one of the platforms at either end of the bar, and in doing so complete the test. An untreated Sandhoff mouse is able to complete the test up until around 11 weeks of age. After this point motor function and hind-limb mobility/engagement have deteriorated to the point to which the mouse cannot complete the test, and will drop from the bar onto the padded surface below. […] In FIG. 7 B, acetyl-leucine treatment of 0.1 g/kg body weight was provided from 3 weeks of age. The acetyl-leucine treated Sandhoff mice retained the ability to complete the test up to 13 weeks of age (inclusive). Data shown is the mean of 6 mice per group. […]

[2] = test system: Tay-Sachs disease patients; assay: Case studies, Tay-Sachs disease patients (SARA, SCAFI, MoCA); assay type: in vivo, human
Text: For example, to evaluate overall neurological status, mDRS, a four-domain scale (ambulation, manipulation, language and swallowing), may be applied. Cerebellar function may be evaluated using SARA, an eight-item clinical rating scale (gait, stance, sitting, speech, fine motor function and taxis; range 0-40, where 0 is the best neurological status and 40 the worst), and SCAFI, comprising the 8-m-Walking-Time (8 MW; performed by having patients walking twice as quickly as possible from one line to another excluding turning), 9-Hole-Peg-Test (9HPT) and the number of “PATA” repetitions over 10 s. Subjective impairment and quality of life may be evaluated using the EQ-5D-5L questionnaire and VAS. To assess ocular motor function, 3-dimensional videooculography (EyeSeeCam) may be used to measure the peak velocity of saccades, gain of smooth pursuit, peak slow phase velocity of gaze-evoked nystagmus (gaze-holding function), peak slow phase velocity of optokinetic nystagmus, and gain of horizontal vestibulo-ocular reflex. To evaluate the cognitive state, WAIS-R or WISC-IV, and MoCA, assessing different cognitive domains, including attention and concentration, executive functions, memory, language, visuoconstructional skills, conceptual thinking, calculations, and orientation with a maximum of 30 points and a cut-off score of 26, may be used. The skilled person will know how to perform these and other such tests.
Before treatment was commenced, examination of the patient indicated a Scale for Assessment and Rating of Ataxia (SARA) score of 15.5/40. In addition, results from the patient's Spinocerebellar Ataxia Functional Index (SCAFI) analysis were: • Mean 8-meters Walking Test (8 MW): 21.6 s • MW 9-Hole Pegboard Test Dominant (9HPTD) (right): 48.3 s • MW 9-Hole Pegboard Test Non-Dominant (9HPTND): 44.9 s • MW PATA Word Test: 20 • Montreal Cognitive Assessment (MoCA): 18/30
The day following this examination, the patient was started on therapy with acetyl-leucine, at a dose of 3 g per day for the first week, followed by a dose of 5 g per day for the second week onwards.
The day of the examination, the patient was started on therapy with acetyl-leucine at a dose of 3 g per day for the first week, followed by a dose of 5 g per day for the second week onwards.
The patient was started on therapy with acetyl-leucine at a dose of 1.5 g per day for the first week, followed by a dose of 3 g per day for the second week onwards.

[3] = test system: progressive supranuclear palsy patients; assay: Case studies, progressive supranuclear palsy patients; assay type: in vivo, human; conditions: for Clinical observation: 5 g per day; for Symptoms after stopping medication: about two months later
Method: After 27 days of acetyl-leucine treatment, medication was stopped and the patient was re-examined 60 days later. […] Gait analysis was performed before treatment commenced. […] Gait analysis was performed before treatment commenced. After 17 days of treatment, medication was stopped and the patient was re-examined 4 days later. […] Gait analysis was performed before treatment commenced. After three weeks of treatment, medication was stopped and the patient was re-examined.

SCA 1 patient = assay: Case study, Spinocerebellar Ataxia (SCA) 1; assay type: in vivo, human
Text: The patient in this case study was a person who was genetically diagnosed with Spinocerebellar Ataxia (SCA) 1. Before treatment, the patient had severe problems with speaking and swallowing, tremor of both arms, spasticity and moderate ataxia of stance and gait. The patient also had problems sleeping.

[4] = test system: ataxia with oculomotor apraxia type 4 patients; assay: Case study, ataxia with oculomotor apraxia type 4; assay type: in vivo, human; conditions: AOA4 youngest sibling; on treatment
Text: In this case study, four patients (male siblings) suffered from, and were later diagnosed with, ataxia with oculomotor apraxia type 4. The older three siblings […], at the time of disease onset. […] The older siblings began treatment with acetyl-leucine […], respectively, and have been on the treatment for approximately four years. No long-term clinical data is available for these three patients.
The youngest sibling was […] at the time of onset. […] No long-term clinical data is available for the youngest sibling.

Structure (SMILES): CC(=O)NC(CC(C)C)C(=O)O (racemic) [acetyl-DL-leucine]
- Age up to which ability to complete the bar crossing test was retained ([1]; Sandhoff mice, untreated around 11 weeks): up to 13 weeks of age
- Motor function in bar-crossing test ([1]; Sandhoff mouse model): improved motor function and hind-limb mobility/engagement
- Overall symptoms ([2]; Tay-Sachs Patient 1): improvement in symptoms
- SARA ([2]; Tay-Sachs Patient 1, 5 g per day, after 4 months, baseline 15.5/40): 17/40
- MoCA ([2]; Tay-Sachs Patient 1, after 4 months, baseline 18/30): 22/30
- PATA ([2]; Tay-Sachs Patient 1, after 4 months, baseline 20): 21
- 8MWT ([2]; Tay-Sachs Patient 1, after 4 months, baseline 21.6 sec): 25.49 s
- 9HPTND ([2]; Tay-Sachs Patient 1, after 4 months, baseline 44.9 sec): 47.09 s
- 9HPTD ([2]; Tay-Sachs Patient 1, after 4 months, baseline 48.3 sec): 48.67 s
- Clinical observation ([2]; Tay-Sachs Patient 1, after four months): stable condition with slightly improved cognitive function but had deterioration of stance, gait and fine motor function
- Clinical observation ([2]; Tay-Sachs Patient 1, after one month): improved fine motor skills and reduced hand tremor
- MoCA ([2]; Tay-Sachs Patient 1, after one month, baseline 18/30): 21/30
- PATA ([2]; Tay-Sachs Patient 1, after one month, baseline 20): 22
- 8MWT ([2]; Tay-Sachs Patient 1, after one month, baseline 21.6 sec): 7 s
- 9HPTND ([2]; Tay-Sachs Patient 1, after one month, baseline 44.9 sec): 40.1 s
- 9HPTD ([2]; Tay-Sachs Patient 1, after one month, baseline 48.3 sec): 45.9 s
- SARA ([2]; Tay-Sachs Patient 2, 5 g per day, after one month, baseline 10.5/40): 5/40
- Clinical observation ([2]; Tay-Sachs Patient 2, after one month): increased enunciation, improved postural stability, and enhanced cognitive function
- 8MWT ([2]; Tay-Sachs Patient 2, after one month, baseline 12.5 sec): 9.55 s
- PATA ([2]; Tay-Sachs Patient 2, after one month, baseline 18): 17
- MoCA ([2]; Tay-Sachs Patient 2, after one month, baseline 21/30): 25/30
- 9HPTD ([2]; Tay-Sachs Patient 2, after one month, baseline 21.5 sec): 34.97 s
- 9HPTND ([2]; Tay-Sachs Patient 2, after one month, baseline 35.5 sec): 39.34 s
- SARA ([2]; Tay-Sachs Patient 3, 3 g per day, after one month, baseline 36/40): 33/40
- Clinical observation ([2]; Tay-Sachs Patient 3, after one month): increased fine motor skills
- mRDS ([2]; Tay-Sachs Patient 3, after one month, baseline 18/24): 16/24
- EQ-5D-5L visual scale ([2]; Tay-Sachs Patient 3, after one month, baseline 50): 60
- 8MWT ([2]; Tay-Sachs Patient 3, after one month, with support of one arm, baseline 18.1 (only with strong support)): 11.75 (with support
- Symptoms after suspension of treatment ([3]; PSP Patient 1): symptoms worsened
- Clinical observation ([3]; PSP Patient 1, 27 days of treatment): significant reduction of dizziness and slight improvement of gait
- PSPRS Score ([3]; PSP Patient 1, re-examined about two months later): remained stable
- Clinical observation ([3]; PSP Patient 2, 17 days of treatment, re-examined 4 days after stopping): no significant improvement of gait or hypokinetic rigid syndrome
- Symptoms after stopping medication ([3]; PSP Patient 2): no deterioration of symptoms
- Coefficient of variation (temporal) ([3]; PSP Patient 2, after 17 days of treatment, before 8.5): 6.6
- Track width ([3]; PSP Patient 2, after 17 days of treatment, before 10.3): 9.3 cm
- Functional Gait Assessment ([3]; PSP Patient 2, after 17 days of treatment, before 15/30): 15/30
- Double stance ([3]; PSP Patient 2, after 17 days of treatment, before 34.5): 28.6%
- speed ([3]; PSP Patient 2, after 17 days of treatment, before 51): 68 cm/s
- Step cycle length ([3]; PSP Patient 2, after 17 days of treatment, before 66): 82 cm
- cadence ([3]; PSP Patient 2, after 17 days of treatment, before 93): 99 steps/minute
- Max. speed ([3]; PSP Patient 2, after 17 days of treatment, before 123): 98 cm/s
- Clinical observation ([3]; PSP Patient 3, 17 days of treatment, re-examined 4 days after stopping): no significant improvement of gait or hypokinetic rigid syndrome
- Symptoms after stopping medication ([3]; PSP Patient 3): no deterioration of symptoms
- Coefficient of variation (temporal) ([3]; PSP Patient 3, after 17 days of treatment, before 3.6): 3.1
- Track width ([3]; PSP Patient 3, after 17 days of treatment, before 15.5): 15.1 cm
- Double stance ([3]; PSP Patient 3, after 17 days of treatment, before 25.8): 24.3%
- Functional Gait Assessment ([3]; PSP Patient 3, after 17 days of treatment, before 28/30): 27/30
- speed ([3]; PSP Patient 3, after 17 days of treatment, before 103): 120 cm/s
- cadence ([3]; PSP Patient 3, after 17 days of treatment, before 106): 112 steps/minute
- Step cycle length ([3]; PSP Patient 3, after 17 days of treatment, before 118): 129 cm
- Max. speed ([3]; PSP Patient 3, after 17 days of treatment, before 163): 194 cm/s
- Clinical observation ([3]; PSP Patient 4, after three weeks of treatment): gait with increased subjective security and with reduced frequency of falls
- Functional Gait Assessment ([3]; PSP Patient 4, after 3 weeks of treatment): 14/30
- Coefficient of variation (temporal) ([3]; PSP Patient 4, after 3 weeks of treatment, before 8.2): 6.8
- Track width ([3]; PSP Patient 4, after 3 weeks of treatment, before 15.4): 13.6 cm
- speed ([3]; PSP Patient 4, after 3 weeks of treatment, before 39): 65 cm/s
- Step cycle length ([3]; PSP Patient 4, after 3 weeks of treatment, before 43): 63 cm
- Double stance ([3]; PSP Patient 4, after 3 weeks of treatment, before 45.4): 36%
- Max. speed ([3]; PSP Patient 4, after 3 weeks of treatment, before 70): 93 cm/s
- cadence ([3]; PSP Patient 4, after 3 weeks of treatment, before 109): 125 steps/minute
- Symptoms without medication ([3]; PSP Patient 4, after three months without medication): progression of hypokinetic-rigid syndrome
- Symptoms (SCA 1 patient; 5 g/day, three weeks on medication): all symptoms significantly improved
- Side-effects (SCA 1 patient; over two years on the same dosage): without any side-effects
- Intensity of signs and symptoms after stopping (SCA 1 patient; two weeks after medication was stopped): the same as before therapy
- Mother's report compared to older siblings at each age [4]: improved fine motor skills and improved speech
